The values below come from a melting point compilation (Tetko et al.; mined from patent text by program, amines drawn as free bases though some values may be those of a salt).

By melting point is commonly meant the temperature of the solid-liquid transition. For `CC1(C)OC(=O)N(c2ccc(F)c(F)c2)c2ccccc21`, the melting point fell in the range of 207 to 208 °C.

`Cn1ccnc1Sc1ccc(Nc2c(C#N)cnc3cc(/C=C/CCN4CCC(N5CCCC5)CC4)ccc23)cc1Cl` yielded a melting point of 214 to 216 °C.

In turn, `Nc1ccc(C(=O)N2Cc3ccccc3Sc3ccccc32)cc1` returned a melting point of 52 to 55 °C.

On to `COc1nc(C)nc(NC(=O)NS(=O)(=O)c2ccccc2C(=O)OCCCl)n1`, for which the melting point fell in the range of 167 to 170 °C.

Turning to `COc1cc2nc(N3CCN(C(=O)C=Cc4ccccn4)CC3)nc(N)c2cc1OC`, the melting point lay in the range of 235 to 237 °C.

`CCN1C(=O)C(C(=O)Nc2cccc(C(=O)Nc3ccc(Br)cc3)c2)c2cc(C(=O)c3ccccc3)ccc21` (stereo unspecified) displayed a melting point of 139 to 142 °C.

`O=C(NCCc1ccc(O)cc1)c1ccc2n1Cc1ccccc1N(C(=O)CSc1ccc(Br)cc1)C2` had a melting point of 168 to 169 °C.

For `CCCCCCN(Cc1ccc(-c2ccccc2-c2nnn[nH]2)cc1)c1ncc(C(=O)O)s1`, the melting point lay within 113 to 117 °C.

Turning to `Cc1nc(C(C)C)c(S(=O)(=O)c2ccccc2)n1COCc1ccccc1`, the melting point lay in the range of 116 to 117 °C.

As to `COc1ccc2oc(C(=O)c3cccnc3F)cc2c1`, the melting point lay within 130 to 134 °C.

With `NNC(=C[N+](=O)[O-])NCc1ccc(Cl)nc1`, the melting point lay within 188 to 190 °C.

For the compound `NC(=O)CNC(=O)c1cccc(-c2ccc3c(c2)C(Oc2ccc(Cl)cc2Cl)CC3)c1` (stereo unspecified), the melting point lay in the range of 180 to 181 °C.

With `CCOC(=O)C1=C(C)Nc2ccnc(OC(C)C)c2C1c1ccccn1` (stereo unspecified), the melting point is 191 to 193 °C.

Regarding `CC(=O)Nc1c(C(=O)c2ccccc2)[nH]c2ccc(N)cc12`, the melting point lay in the range of 254 to 256 °C.

Compound `CC(C)(COCc1cccc(Oc2ccccc2)c1)c1ccc(O)c(Cl)c1` yielded a melting point of 68 to 69 °C.

Turning to `Cc1ccc(-c2nccc(-c3ccccc3)n2)cc1[N+](=O)[O-]`, the melting point was found to be 139 °C.

The compound `N#Cc1cccc2nnsc12` displayed a melting point of 114 to 117 °C.

Turning to `Cc1noc(NS(=O)(=O)c2ccccc2-c2ccc(-c3ncco3)cc2CN(Cc2ccccc2)CC(F)(F)F)c1C`, the melting point fell in the range of 50 to 60 °C.

`O=C(CCCc1ccccc1)c1cccc(OCc2ccc3ccccc3c2)c1` showed a melting point of 75 to 76 °C.

As for `Cc1cc(C(=N)N)ccc1N1CCN(c2ccc(CCC(=O)O)cc2)C1=O`, the melting point is > 270 °C.

`COC1CCC(OC)C2=C1C=CC(=O)C2` (stereo unspecified) returned a melting point of 99 to 100 °C.

Compound `O=C1NC(=O)c2c1c(-c1ccccc1Cl)cc1c2c(Br)cn1CCCO` gave a melting point of 121 to 123 °C.

`CCOc1ccc(OCC)c(C=O)c1` registered a melting point of 60 to 61 °C.

In turn, `N#Cc1nn(-c2c(Cl)cc(C(F)(F)F)cc2Cl)c(N)c1-c1ccoc1S(=O)C(F)(F)F` (stereo unspecified) gave a melting point of 141 to 142 °C.

`O=C1NC(=O)C(c2ccc(N3C(=O)c4ccccc4C3=O)cc2)S1` (stereo unspecified) had a melting point of 243 to 245 °C.

For the compound `CCCNC(=O)C1(CCCc2ccc(N3C(=O)c4ccccc4C3=O)cc2)c2ccccc2-c2ccccc21`, the melting point was 148 to 151 °C.

Take `COc1ccc(SSc2ccc(OC)cc2C(=O)Nc2ccc(S(N)(=O)=O)cc2)c(C(=O)Nc2ccc(S(N)(=O)=O)cc2)c1`: the melting point was 242 to 243 °C.

`CC(C)(C)NC(=O)OC1SCN(c2ccccc2)C1=O` (stereo unspecified): the melting point fell in the range of 146 to 148 °C.

The compound `Cc1cc(Oc2ccc(S(C)(=O)=O)nc2)cc2cc(C3=NCC(CC(=O)O)S3)[nH]c12` (stereo unspecified) returned a melting point of 248 to 249 °C.

As for `O=C1c2ccccc2CCC1CNCC(O)c1cccc(O)c1` (stereo unspecified), the melting point lay within 140 to 143 °C.

Take `CCCCCCCCCCCCNS(=O)(=O)c1cccc(C(F)(F)F)c1`: the melting point fell in the range of 65 to 68 °C.

In turn, `Cc1cc2nc(S(=O)Cc3ccccc3N)[nH]c2cc1C` (stereo unspecified) had a melting point of 179 to 181 °C.

Regarding `CCCCCCCCc1ccc(N(c2ccc(CCCCCCCC)cc2)C2(c3c(C)n(CC)c4ccccc34)OC(=O)c3ccccc32)cc1` (stereo unspecified), the melting point lay within 106 to 108 °C.

In the case of `CCC(C)(C)c1ccc(OCC(=O)O)c(C(C)(C)C)c1`, the melting point lay in the range of 140 to 144 °C.

On to `Cc1cccc2c1SC1(CCOC1=O)C2=O` (stereo unspecified), for which the melting point lay within 98.5 to 99.5 °C.

The compound `Cc1nn2c(CCCOc3ccc(NCCC(=O)O)cc3)n[nH]c2c1Cl` showed a melting point of 151 to 153 °C.

`COc1cc2c(cc1OC)C(c1ccccc1)N1C(=O)CNC(=O)C1C2` (stereo unspecified) registered a melting point of 265 to 267 °C.

The compound `O=C(N[C@@H]1C2CCN(CC2)[C@H]1Cc1cccnc1)c1cc2ccccc2o1` had a melting point of 134 to 139 °C.

With `Oc1cc(-c2c(-c3ccccc3)nn3ccccc23)n[nH]1`, the melting point is > 300 °C.

On to `O=C(Nc1cnc2cnc(-c3ccc(O)cc3)nc2c1)c1ccncc1`, for which the melting point is 230 to 232 °C.

The compound `N#CCC(C#N)NNc1c(Cl)cc(C(F)(F)F)cc1Cl` (stereo unspecified) registered a melting point of 101 to 102 °C.

The compound `O=C(Nc1ccccc1Oc1ccccc1-c1nnn[nH]1)c1ccc(OCc2ccc3ccccc3n2)cc1` had a melting point of 224 to 226 °C.

The compound `O=S(=O)(Nc1cccc(CCOCc2nc(-c3ccc(C(F)(F)F)cc3)sc2Cl)c1)C(F)(F)F` gave a melting point of 107 to 109 °C.

In the case of `CC=CC(=O)Nc1n[nH]c2cc(C(F)(F)F)ccc12`, the melting point stood at 208 °C.

Turning to `Cn1ncc2[nH]c3c(F)cccc3c(=O)c21`, the melting point is > 300 °C.

Regarding `CNC(=O)c1cc2c(cn1)[nH]c1ccccc12`, the melting point was 264 to 266 °C.

Turning to `CCOC(=O)C(=O)c1csc(NC(=O)Nc2ccc(F)cc2)n1`, the melting point is 220 to 223 °C.

Regarding `CS(=O)(=O)Nc1cc2c(cc1Oc1ccc(F)cc1F)C(=O)CC2c1ccccc1` (stereo unspecified), the melting point worked out at 101 °C.

In turn, `COc1ccc2c(C(=O)CC(C)=O)c(OC)ccc2c1` showed a melting point of 88 °C.

Consider `CCCCCCOc1ccc(C=[N+]([O-])C(C)(C)C)cc1OCC`, for which the melting point came to 35.5 °C.

As for `Nc1nc2ccccc2c2c1ncn2CC1(O)CCCC1`, the melting point fell in the range of 254 to 255 °C.

`CC(C)c1cc(C(C)C)c(C=CCC(=O)O)c(C(C)C)c1` gave a melting point of 201 to 203 °C.

`COc1ccc(OC)c(Cc2cc(C)cc(OC)c2C(=O)O)c1`: the melting point was 172 to 174 °C.

`COC(=O)COc1cc(C(C)=O)c(O)c2ccccc12` registered a melting point of 123 to 124 °C.

In turn, `CC(=O)c1c(F)ccc(NC2OC(=O)CC(=O)O2)c1F` had a melting point of 82 to 84 °C.

On to `Cc1ccc(S(=O)(=O)Nc2ccc(-c3ccccc3)cn2)cc1`, for which the melting point lay within 187 to 189 °C.

Compound `CCN1c2ncccc2C(=O)Nc2c(C)cc(N3CCC(O)C3)nc21` (stereo unspecified) registered a melting point of 131 to 134 °C.

Compound `CC1=C(C(=O)OC(C)C)C(c2cccc([N+](=O)[O-])c2)N(C(=O)N(C)C)C(N)=N1` (stereo unspecified) displayed a melting point of 202 to 203 °C.

`CCC(=O)NCCc1c[nH]c2cc(Cl)c(OC)cc12` yielded a melting point of 100 to 101 °C.

Regarding `CCOC(=O)Cc1csc(-c2c(O)cccc2O)n1`, the melting point was in the range of 152 to 154 °C.

Compound `CNC(=O)c1ccc(-c2ccc3nnn(Cc4c(F)ccc(F)c4Cl)c3n2)cc1F` returned a melting point of 213 to 215 °C.

As to `O=C(NCCOc1ccc(CC(Sc2nc3ccccc3o2)C(=O)O)cc1)c1ccc(-c2ccccn2)cc1` (stereo unspecified), the melting point was 66 to 67 °C.

Regarding `CC(C)c1ccc(-c2ccc(-c3cccc(C(=O)O)c3)o2)cc1`, the melting point was in the range of 172 to 176 °C.

`Nc1cc(-c2c[nH]cn2)ccn1` gave a melting point of 193 to 196 °C.

Take `CCCc1c(O)c(C(C)=O)cc(C(C)=O)c1NCC`: the melting point was 114 to 115 °C.

In the case of `CCCC1=NN(c2ccccn2)C(=O)C1=CNc1ccccc1CC`, the melting point is 151 °C.

Regarding `CCCCCOC(=O)c1ccc(S(N)(=O)=O)cc1`, the melting point is 96 to 98 °C.

Take `COC(=O)[C@H](Cc1ccc(I)cc1)NC(C)=O`: the melting point lay within 118 to 120 °C.

In turn, `O=C(Cn1cc(Cc2ccccc2)cc(NC(=O)OCc2ccccc2)c1=O)NC(Cc1ccccc1)C(=O)C(F)(F)F` (stereo unspecified) displayed a melting point of 127 to 130 °C.

`COc1cc(C)c(C)cc1NC(=S)N1CCN(c2cc(Cl)cc(Cl)c2)CC1` gave a melting point of 188 to 189 °C.

As to `O=C1C=CC(O)(c2nc3ccccc3s2)C=C1`, the melting point is 63 to 66 °C.

Take `CCCCc1cnc2ccccc2c1Cc1ccc(C(=O)O)cc1`: the melting point worked out at 233 °C.

In turn, `N#Cc1ccc(-c2cn(-c3ccc(I)cc3)c(SCc3ccncc3)n2)cc1` showed a melting point of 155 to 162 °C.

The compound `O=S1(=O)c2cccc3cccc(c23)N1CCN1CCC(CC2CCc3ccccc32)CC1` (stereo unspecified) gave a melting point of 127 °C.

Regarding `COc1ccc(-c2ccc(C(=O)Nc3ccc4cc(CN5C(C)CCCC5C)ccc4c3)cc2)cc1` (stereo unspecified), the melting point was in the range of 199 to 200 °C.

The compound `COc1ccc(S(=O)(=O)NCC(O)(Cn2cncn2)c2ccc(Cl)cc2Cl)cc1` (stereo unspecified) had a melting point of 56 to 66 °C.

The compound `NNc1cc(Nc2ccc(F)c(C(F)(F)F)c2)nc(Cl)n1` had a melting point of 102 to 103 °C.

`CC(C)[Si](Oc1ccc([C@H](O)[C@H](C)N2CCC(O)(c3ccccc3)CC2)cc1)(C(C)C)C(C)C` (relative stereo): the melting point was 148 to 151 °C.

With `CC(=NNC(N)=O)c1ccc(Nc2nccc(-c3cccnc3)n2)cc1`, the melting point lay within 256 to 258 °C.

With `Cn1cc(-c2ccc(C34CCCN(CC3)C4)cn2)cn1` (racemic), the melting point was in the range of 138 to 140 °C.

`COc1ccc(S(=O)(=O)Nc2ccccc2NC(=O)c2ccccc2C)cc1` came in with a melting point of 129 to 130 °C.

The compound `N#Cc1cnn2c(-c3ccncc3)ccnc12` yielded a melting point of 137 to 138 °C.

`COC(=O)C(=O)c1cc(OC)c(OCCOc2ccc3ccccc3c2)c(OC)c1` showed a melting point of 69 to 71 °C.

As for `CCc1cc(Nc2ccc(Sc3ccc(O)cc3)cc2)nc(N)n1`, the melting point was 181 to 184 °C.

`CCOC(=O)c1c(C)nc(C(C)C)c2nnn(CC)c12`: the melting point was in the range of 55 to 57 °C.

Compound `CC(C)(C)OC(=O)CN(C(=O)CN1C(=O)c2ccccc2C1=O)c1ccc2c(c1)OCO2` showed a melting point of 166 °C.
